Measured values as given in patent US12384756B2, “Piperidinedione derivatives” (INNOCURE THERAPEUTICS, INC., priority 2021, dated 2025).
Read-outs that look alike come from different tables or passages of the source.

What was measured:
Type in all cases: cell-based
BRD4 [1] = biological target: T1, BRD4 (Homo sapiens, UniProt O60885); assay: BRD4 degradation by western blot in A549 cells; parameters: BRD4 expressed in cells; endogenous in cells
Protocol: The human lung cancer cell line A549 was purchased from the Korean Cell Line Bank.
5×10^5 cells were seeded for each well of the 6 well plate (SPL company), and the cells were cultured with a total of 1.5 mL of the culture medium volume. The cultured cells were treated with various concentrations (0 nM, 0.1 nM, 0.3 nM, 1 nM, 3 nM, 10 nM, 30 nM, 100 nM, 300 nM, 1000 nM, 3000 nM, 10000 nM) of PROTAC compound according to the present invention and cultured for 24 hours.
For cell lysis, a lysis buffer was added and cell lysate was obtained using a cell scraper.
Specifically, cells were treated with 70 μl of 1×RIPA buffer containing protease inhibitors. Cell lysate was collected on ice using a scraper and incubated for 30 minutes. Then, cells were centrifuged at 4° C. 15,000 rpm for 30 minutes to obtain a cell lysate.
The standard curve was obtained using BCA assay, and the protein mass in the lysate was quantified by substituting the standard curve. The mixture was incubated at 37° C. for 30 minutes using a sample solution of 1 μl and a BCA solution of 200 μl. The absorbance was measured at 562 nm. Samples were prepared by adding a sample buffer to reach 10 μg per well.
SDS-PAGE was conducted by setting a running time of 70 minutes at 110 V in a 4-15% Mini-PROTEAN TGX stain-free gel (15 wells). A transfer was conducted using a trans-blot turbo transfer system (Bio-rad). Blocking was conducted using a blocking-grade blocker (Bio-rad) for 1 hour. Then, it was washed with 1×TBS containing 0.1% tween 20, and reacted with anti-BRD4 antibody (1:3000) or anti-beta-tubulin antibody (1:3000) in bovine serum albumin as a primary antibody at 4° C. for 16 hours. After washing three times for 10 minutes with 1×TBS containing 0.1% tween 20, it was reacted with anti-rabbit antibody (1:10000) in the blotting-grade blocker as a secondary antibody at room temperature for 1 hour. Then, after washing three times for 10 minutes with 1×TBS containing 0.1% tween 20, detection was conducted with SUPERSIGNAL™ WEST PICO PLUS chemiluminescence substrate.
For result analysis, final blot data were obtained using an image analyzer (GE).
DC50^1): DC50 value is calculated by comparing band intensity with that of a sample which is not treated with a PROTAC compound as a controlled group.
DC50^2): DC50 value is calculated by comparing the band intensity relative to that of beta-tubulin with that of the controlled group.

[2] = test system: Human breast cancer cell line [MDA-MB-231]; assay: Anti-proliferative activity (WST-8) of BRD4 targeted PROTAC in MDA-MB-231; conditions: MDA-MB-231, 72 hours
Protocol: (§1) Human breast cancer cell line [MDA-MB-231] was cultured in RPMI medium with 10% petal bovine serum, penicillin [100 U/ml] and streptomycin [[…]]. The synthesized compound was prepared as a stock solution of 10 mM or 50 mM dissolved in DMSO [dimethyl sulfoxide], and it was sequentially diluted to treat the cell line.
In order to observe inhibition of cell growth, cells were aliquoted into concentrations of 5,000 cells/well at 96 well plates, and then were treated with samples prepared at various concentrations for 72 hours. The cell survival was calculated by steps of adding in each well […] of water soluble tetrazolium salt (WST-8) which produces formazon in response to dehydrogenase present in the electron transport chain in mitochondria, incubating for 2 hours, measuring the absorbance at 450 nm, and calculating by GraphicPad Prism 8.0 software.

BRD4 [3] = biological target: T1, BRD4; assay: BRD4 protein degradation by western blot in MDA-MB-231 cells; parameters: BRD4 expressed in cells; endogenous in cells; host or cells: MDA-MB-231; conditions: MDA-MB-231, 24 hours; for DC50: 50% inhibition of protein expression, read-out: DC50 of BRD4-targeted PROTAC
Protocol: as §1
To evaluate the PROTAC's degradation ability to BRD4 expressed in cells, the cells were aliquoted into a 6 well plate at a concentration of 5×10^5 cells/ml, and then the sample was treated for 24 hours. In order to conduct western blotting assay to confirm protein expression, the cell treated with the compound was treated for 30 minutes with 70 μL of RIPA buffer wherein protease inhibitor is added. Then, cell lysate was collected on ice using a scraper and centrifuged at 4° C. 15,000 rpm for 30 minutes to obtain a supernatant containing protein. Then, SDS-PAGE is conducted for 10 μg of protein per each sample, and the protein is transferred to a membrane. The protein is reacted with antibodies of anti-BRD4, anti-tubulin and anti-GAPDH at 4° C. for 16 hours, and then, reacted with secondary antibodies at room temperature for 1 hour. The protein expression is confirmed using SUPERSIGNAL™ WEST PICO PLUS chemiluminescence substrate and image analyzer. The protein expression was normalized based on the expression value of β-tublin or GAPDH. The amount of protein expression in each sample was measured in % based on the sample treated with 0.1% DMSO vehicle which was set to 100%. The amount of protein expression was quantified using the IMAGE J PROGRAM. The change in the amount of protein expression due to the treatment of compound (DC50: the concentration of compounds where the 50% inhibition of protein expression is achieved) was calculated using […] PRISM 8.0 software.

[4] = Homo sapiens, WST-8, read-out: IC50 of BRD4-targeted PROTAC (cell proliferation)
[5] = Homo sapiens, read-out: concentration at which cancer cell proliferation is effectively inhibited

| Molecule | DC50 (BRD4 [1]; A549, 24 hours; band intensity compared with untreated control; read-out: DC50 1)) [nM] | DC50 (BRD4 [1]; A549, 24 hours; band intensity relative to beta-tubulin compared with control; read-out: DC50 2)) [nM] | IC50 [2, 4] [nM] | IC50 [2, 5] [nM] | BRD4 degradation (in words) (BRD4 [3]) | DC50 (BRD4 [3]) [nM] | IC50 ([2]; WST-8, read-out: IC50 of BRD4-targeted PROTAC (cell proliferation)) [nM] |
| --- | --- | --- | --- | --- | --- | --- | --- |
| Cc1sc2c(c1C)C(c1ccc(Cl)cc1)=N[C@@H](CC(=O)NCOCCOCCOCCNc1cccc3cnn(C4CCC(=O)NC4=O)c(=O)c13)c1nnc(C)n1-2 (stereo partly drawn) [Ex. 21, 2-((S)-4-(4-chlorophenyl)-2,3,9-trimethyl-6H-thieno[3,2-f][1,2,4]triazolo[4,3-a][1,4]diazepin-6-yl)-N-((2-(2-(2-((3-(2,6-dioxopiperidin-3-yl)-4-oxo-3,4-dihydrophthalazin-5-yl)amino)ethoxy)ethoxy)ethoxy)methyl)acetamide] | 1600 | 242 | – | – | – | – | – |
| Cc1sc2c(c1C)C(c1ccc(Cl)cc1)=N[C@@H](CC(=O)Nc1cccc(OCCOCCOCCNc3cccc4c(C)nn(C5CCC(=O)NC5=O)c(=O)c34)c1)c1nnc(C)n1-2 (stereo partly drawn) [Example 39, 2-((S)-4-(4-chlorophenyl)-2,3,9-trimethyl-6H-thieno[3,2-f][1,2,4]triazolo[4,3-a][1,4]diazepin-6-yl)-N-(3-(2-(2-(2-((3-(2,6-dioxopiperidin-3-yl)-1-methyl-4-oxo-3,4-dihydrophthalazin-5-yl)amino)ethoxy)ethoxy)ethoxy)phenyl)acetamide] | – | – | < 1 | < 250 | effectively degraded | 0.575 | – |
| Cc1sc2c(c1C)C(c1ccc(Cl)cc1)=N[C@@H](CC(=O)NCC#Cc1ccc3c(=O)n(C4CCC(=O)NC4=O)ncc3c1)c1nnc(C)n1-2 (stereo partly drawn) [Example 40, 2-((S)-4-(4-chlorophenyl)-2,3,9-trimethyl-6H-thieno[3,2-f][1,2,4]triazolo[4,3-a][1,4]diazepin-6-yl)-N-(3-(2-(2,6-dioxopiperidin-3-yl)-1-oxo-1,2-dihydrophthalazin-6-yl)prop-2-yn-1-yl)acetamide] | – | – | 227 | < 250 | effectively degraded | 10.9 | – |
| Cc1sc2c(c1C)C(c1ccc(Cl)cc1)=N[C@@H](CC(=O)Nc1cccc(OCCOCCOCCNc3ccc4c(=O)n(C5CCC(=O)NC5=O)ncc4c3)c1)c1nnc(C)n1-2 (stereo partly drawn) [Example 41, 2-((S)-4-(4-chlorophenyl)-2,3,9-trimethyl-6H-thieno[3,2-f][1,2,4]triazolo[4,3-a][1,4]diazepin-6-yl)-N-(3-(2-(2-(2-((2-(2,6-dioxopiperidin-3-yl)-1-oxo-1,2-dihydrophthaazin-6-yl)amino)ethoxy)ethoxy)ethoxy)phenyl)acetamide] | – | – | 137 | < 250 | effectively degraded | 4.4 | – |
| Cc1sc2c(c1C)C(c1ccc(Cl)cc1)=N[C@@H](CC(=O)Nc1cccc(OCCOCCOCCNc3ccc4cnn(C5CCC(=O)NC5=O)c(=O)c4c3)c1)c1nnc(C)n1-2 (stereo partly drawn) [Example 42, 2-((S)-4-(4-chlorophenyl)-2,3,9-trimethyl-6H-thieno[3,2-f][1,2,4]triazolo[4,3-a][1,4]diazepin-6-yl)-N-(3-(2-(2-(2-((3-(2,6-dioxopiperidin-3-yl)-4-oxo-3,4-dihydrophthalazin-6-yl)amino)ethoxy)ethoxy)ethoxy)phenyl)acetamide] | – | – | 20.3 | < 250 | effectively degraded | 10.7 | – |
| Cc1sc2c(c1C)C(c1ccc(Cl)cc1)=N[C@@H](CC(=O)NCCNc1cccc3cnn(C4CCC(=O)NC4=O)c(=O)c13)c1nnc(C)n1-2 (stereo partly drawn) [Example 43, 2-((S)-4-(4-chlorophenyl)-2,3,9-trimethyl-6H-thieno[3,2-f][1,2,4]triazolo[4,3-a][1,4]diazepin-6-yl)-N-(2-((3-(2,6-dioxopiperidin-3-yl)-4-oxo-3,4-dihydrophthalazin-5-yl)amino)ethyl)acetamide] | – | – | > 1000 | – | – | 185 | – |
| Cc1sc2c(c1C)C(c1ccc(Cl)cc1)=N[C@@H](CC(=O)NCCNc1cccc3c(=O)n(C4CCC(=O)NC4=O)ncc13)c1nnc(C)n1-2 (stereo partly drawn) [Example 44, 2-((S)-4-(4-chlorophenyl)-2,3,9-trimethyl-6H-thieno[3,2-f][1,2,4]triazolo[4,3-a][1,4]diazepin-6-yl)-N-(2-((2-(2,6-dioxopiperidin-3-yl)-1-oxo-1,2-dihydrophthalazin-5-yl)amino)ethyl)acetamide] | – | – | > 1000 | – | – | 930 | – |
| Cc1sc2c(c1C)C(c1ccc(Cl)cc1)=N[C@@H](CC(=O)NCCOc1cccc3cnn(C4CCC(=O)NC4=O)c(=O)c13)c1nnc(C)n1-2 (stereo partly drawn) [Example 45, 2-((S)-4-(4-chlorophenyl)-2,3,9-trimethyl-6H-thieno[3,2-f][1,2,4]triazolo[4,3-a][1,4]diazepin-6-yl)-N-(2-((3-(2,6-dioxopiperidin-3-yl)-4-oxo-3,4-dihydrophthalazin-5-yl)oxy)ethyl)acetamide] | – | – | > 1000 | – | – | 108 | – |
| Cc1sc2c(c1C)C(c1ccc(Cl)cc1)=N[C@@H](CC(=O)NCCN1CCN(c3ccc4c(=O)n(C5CCC(=O)NC5=O)ncc4c3)CC1)c1nnc(C)n1-2 (stereo partly drawn) [Example 48, 2-((S)-4-(4-chlorophenyl)-2,3,9-trimethyl-6H-thieno[3,2-f][1,2,4]triazolo[4,3-a][1,4]diazepin-6-yl)-N-(2-(4-(2-(2,6-dioxopiperidin-3-yl)-1-oxo-1,2-dihydrophthalazin-6-yl)piperazin-1-yl)ethyl)acetamide] | – | – | 2.15 | < 250 | effectively degraded | 5.9 | – |
| Cc1sc2c(c1C)C(c1ccc(Cl)cc1)=N[C@@H](CC(=O)NCCN1CCN(c3ccc4cnn(C5CCC(=O)NC5=O)c(=O)c4c3)CC1)c1nnc(C)n1-2 (stereo partly drawn) [Example 49, 2-((S)-4-(4-chlorophenyl)-2,3,9-trimethyl-6H-thieno[3,2-f][1,2,4]triazolo[4,3-a][1,4]diazepin-6-yl)-N-(2-(4-(3-(2,6-dioxopiperidin-3-yl)-4-oxo-3,4-dihydrophthalazin-6-yl)piperazin-1-yl)ethyl)acetamide] | – | – | 30.6 | < 250 | effectively degraded | 40.7 | – |
| N-(4-(2-(2,6-dioxopiperidin-3-yl)-1-oxo-1,2-dihydrophthalazin-6-yl)butyl)-2-((S)-2,3,9-trimethyl-4-phenyl-6H-thieno[3,2-f][1,2,4]triazolo[4,3-a][1,4]diazepin-6-yl)acetamide [Example 47] | – | – | – | – | – | 52.3 | 754 |
